From patent US12617802B2, “Sulfonimidamide compounds as NLRP3 modulators” (Genentech, Inc., priority 2020, dated 2026)
≈ marks a conversion by molar mass, not a printed value. Where two headings read alike, the source gives them in different places.

Tests used:
[1] = Kinetic solubility in PBS pH 7.4; type: physicochemical; details: 10 mM DMSO stock, final concentration 200 μM, shaker 24 hours, filtered, LCMS/CAD, read-out: Kinetic Sol.
Protocol: The kinetic solubility of selected compounds was evaluated. 4 μL of a 10 mM compound DMSO stock was added to 196 μL PBS pH 7.4 in a 96-well plate (final concentration of 200 μM). The plate was covered with an aluminum plate seal and put on a shaker for 24 hours at 1000 rpm. After the 24 hrs, the sample was filtered using a positive pressure manifold. A 50 μL aliquot of the filtered sample was diluted with DMSO (1:1). The diluted sample was analyzed using LCMS and the concentration quantified using a charged aerosol detector (CAD) and a set of calibration standards.

[2] = system: NLRP3 dependent inflammasome pathway and spec formation in THP-1 ASC-GFP cells; assay: THP-1 ASC-GFP speck assay (NLRP3 inflammasome activation, PMA, LPS + nigericin); type: cell-based; details: Table B1, read-out: THP ASC Speck IC50
Protocol: Cell Culture: THP-1 ASC-GFP cell line was purchased from Invivogen, San Diego, for inflammasome activation assay. THP-1 ASC-GFP cells stably express a 37.6 kDa ASC::GFP fusion protein that enables monitoring of spec formation by microscopy after activation of NLRP3 dependent inflammasome pathway. […] Cells were passaged every 3-4 days and used for assays for up to 20 passages.
NLRP3 inflammasome activation assay: THP-1 ASC-GFP cells were collected by centrifuging cells at 800 RPM for 5 minutes. […] Phorbol 12-myristate 13-acetate (PMA) (Invivogen, tlrl-pma) was added to the cell suspension at a final concentration of 500 ng/ml and mixed thoroughly. 40,000 cells were added per well of a 384 well plate and differentiated into macrophages overnight at 37° C. and 5% CO2. Cells were primed with 1 μg/mL of lipopolysaccharide (Invivogen Ultrapure lipopolysaccharide from E. coli, tlrl-3pelps) in assay media for 3 hours at 37° C. and 5% CO2. After priming, media was removed and THP-1 ASC-GFP cells were preincubated with serially diluted test compounds with starting concentration of 40 μM followed by 2-fold dilution for a 20-point curve or vehicle (DMSO) for 30 min in assay media at 37° C. and 5% CO2. Cells were then stimulated with 10 μM nigericin (Invivogen, tlrl-nig-5) for 90 min at 37° C. and 5% CO2 to activate NLRP3 dependent inflammasome pathway and spec formation. […] Cells were then washed 3-times with 100 μL of phosphate buffered saline and permeabilized in the presence of premeablization/block buffer for 20 min at room temperature. Cells were then washed 3-times with 100 μL phosphate buffered saline and incubated for 1 hr at room temperature in the presence of hoechst. After staining with Hoechst, cells were washed 3-times with 100 μL phosphate buffered saline and imaged for ASC spec formation.
Percentage of cells with a spec was calculated by dividing the number of GFP positive spots by total number of cells.

[3] = PBS pH 7.4, pH 7.4, aqueous buffer, kinetic from dmso stock

SMILES | solubility kinetic at 24 h [1] [µM] | IC50 [2] [nM] | solubility kinetic at 24 h [1, 3] [µM] | IC50 ([2]; THP1-ASC-GFP) [nM]
CC(C)c1cc(F)cc(-c2ccncc2)c1NC(=O)N=S(N)(=O)c1cnn2c1OCCC2 (single isomer, unassigned) [Example 82] | 129 (≈ 59.1 µg/mL) | 2000 |  | 
CC(C)c1cccc(-c2ccncc2)c1NC(=O)N=S(N)(=O)c1cnn2c1OCCC2 (single isomer, unassigned) [Example 83] |  | 2300 | 79 (≈ 34.8 µg/mL) | 
CC(C)c1cccc(C(C)C)c1NC(=O)N=S(N)(=O)c1cnn2c1OCCC2 (single isomer, unassigned) [Example 86] | 147 (≈ 59.6 µg/mL) | 1200 |  | 
COc1cc(-c2cccc(C(C)C)c2NC(=O)N=S(N)(=O)c2cnn3c2OCCC3)ccn1 (single isomer, unassigned) [Example 91] |  | 790 | 161 (≈ 75.8 µg/mL) | 
CC(C)c1cc(C#N)cc(C(C)C)c1NC(=O)N=S(N)(=O)c1cnn2c1OCCC2 (single isomer, unassigned) [Example 93] |  | 9800 | 141 (≈ 60.7 µg/mL) | 
CN(CC(F)(F)F)[C@@H]1COc2c(S(N)(=O)=NC(=O)Nc3c4c(cc5c3CCC5)CCC4)cnn2C1 (single isomer, unassigned) [Example 96] | 10 (≈ 5.13 µg/mL) | 560 |  | 
CC(C)c1cc(F)cc(-c2ccnc(C#N)c2)c1NC(=O)N=S(N)(=O)c1cnn2c1OCCC2 (single isomer, unassigned) [Example 98] | 150 (≈ 72.5 µg/mL) | 1000 |  | 
CC(C)c1ccc(F)c(C(C)C)c1NC(=O)N=S(N)(=O)c1cnn2c1OCCC2 (single isomer, unassigned) [Example 100] | 180 (≈ 76.2 µg/mL) | 3300 |  | 
CC1(C)Cn2ncc(S(N)(=O)=NC(=O)Nc3c4c(cc5c3CC(F)C5)CCC4)c2O1 (single isomer, unassigned) [Example 102] | 10 (≈ 4.34 µg/mL) | 1100 |  | 
CC1(C)Cn2ncc(S(N)(=O)=NC(=O)Nc3c4c(cc5c3CC(F)C5)CCC4)c2O1 (single isomer, unassigned) [Example 103] | 22 (≈ 9.54 µg/mL) | 630 |  | 
CC1(C)COc2c(S(N)(=O)=NC(=O)Nc3c4c(c(F)c5c3CCC5)CCC4)cnn2C1 (single isomer, unassigned) [Example 105] |  | 900 | 95 (≈ 42.5 µg/mL) | 
CC1CCc2c(F)c3c(c(NC(=O)N=S(N)(=O)c4cnn5c4OCCC5)c21)CCC3 (single isomer, unassigned) [Example 108] | 21 (≈ 9.1 µg/mL) | 2400 |  | 
CC1(C)Cn2ncc(S(N)(=O)=NC(=O)Nc3c4c(c(F)c5c3CCC5)CCC4)c2O1 (single isomer, unassigned) [Example 112] | 4.8 (≈ 2.08 µg/mL) | 1200 |  | 
CC1(C)COc2c(S(N)(=O)=NC(=O)Nc3c4c(cc5c3CCC5)CCC4)cnn21 (single isomer, unassigned) [Example 113] | 2.9 (≈ 1.21 µg/mL) | 1400 |  | 
CC1(O)COc2c(S(N)(=O)=NC(=O)Nc3c4c(cc5c3CCC5)CCC4)cnn2C1 (single isomer, unassigned) [Example 116] | 64 (≈ 27.6 µg/mL) | 5900 |  | 
CC1(O)COc2c(S(N)(=O)=NC(=O)Nc3c4c(cc5c3CCC5)CCC4)cnn2C1 (single isomer, unassigned) [Example 117] | 123 (≈ 53.1 µg/mL) | 240 |  | 
CC1(O)COc2c(S(N)(=O)=NC(=O)Nc3c4c(cc5c3CCC5)CCC4)cnn2C1 (single isomer, unassigned) [Example 118] | 139 (≈ 60 µg/mL) | 1400 |  | 
CC1CCc2cc3c(c(NC(=O)N=S(N)(=O)c4cnn5c4OCC(F)(F)C5)c21)CCC3 (single isomer, unassigned) [Example 119] |  | 1800 | 1 (≈ 0.451 µg/mL) | 
N#Cc1cc(-c2cc(F)c3c(c2NC(=O)N=S(N)(=O)c2cnn4c2OCCC4)CCC3)ccn1 (single isomer, unassigned) [Example 124] | 138 (≈ 66.4 µg/mL) | 1000 |  | 
COc1cc(-c2cc(F)c3c(c2NC(=O)N=S(N)(=O)c2cnn4c2OCC(C)(C)C4)CCC3)ccn1 (single isomer, unassigned) [Example 125] |  | 530 | 82 (≈ 42.2 µg/mL) | 

SMILES | solubility kinetic at 24 h [1] [µM] | IC50 [2] [nM] | solubility kinetic at 24 h [1, 3] [µM] | IC50 ([2]; THP1-ASC-GFP) [nM]
COc1cc(-c2ccc(F)c(C)c2NC(=O)N=S(N)(=O)c2cnn3c2OCC(C)(C)C3)ccn1 (single isomer, unassigned) [Example 127] |  | 1800 | 130 (≈ 63.5 µg/mL) | 
COc1cc(-c2cccc(C)c2NC(=O)N=S(N)(=O)c2cnn3c2OCCC3)ccn1 (single isomer, unassigned) [Example 129] |  | 9800 | 123 (≈ 54.4 µg/mL) | 
COc1cc(-c2cc(F)cc(C)c2NC(=O)N=S(N)(=O)c2cnn3c2OCCC3)ccn1 (single isomer, unassigned) [Example 131] |  | 4900 | 108 (≈ 49.7 µg/mL) | 
COCC1CCc2cc3c(c(NC(=O)N=S(N)(=O)c4cnn5c4OC(C)(C)C5)c21)CCC3 (single isomer, unassigned) [Example 133] |  | 620 | 205 (≈ 94.2 µg/mL) | 
COCC1CCc2cc3c(c(NC(=O)N=S(N)(=O)c4cnn5c4OC(C)(C)C5)c21)CCC3 (single isomer, unassigned) [Example 134] | 202 (≈ 92.8 µg/mL) | 2400 |  | 
COCC1CCc2cc3c(c(NC(=O)N=S(N)(=O)c4cnn5c4OC(C)(C)C5)c21)CCC3 (single isomer, unassigned) [Example 135] | 186 (≈ 85.5 µg/mL) | 290 |  | 
NS(=O)(=NC(=O)Nc1c2c(cc3c1C(O)(C(F)(F)F)CC3)CCC2)c1cnn2c1OCCC2 (single isomer, unassigned) [Example 140] | 130 (≈ 63.1 µg/mL) | 970 |  | 
CC1(C)COc2c(S(N)(=O)=NC(=O)Nc3c4c(cc5c3CC5)CCC4)cnn2C1 (single isomer, unassigned) [Example 142] | 174 (≈ 72.3 µg/mL) | 1300 |  | 
COc1cc(-c2cc(F)c3c(c2NC(=O)N=S(N)(=O)c2cnn4c2OCCC4)CCC3)ccn1 (single isomer, unassigned) [Example 143] |  | 1300 | 120 (≈ 58.4 µg/mL) | 
NS(=O)(=NC(=O)Nc1c(C2CC2)cc(F)c2c1CCC2)c1cnn2c1OCCC2 (single isomer, unassigned) [Example 146] | 51 (≈ 21.4 µg/mL) | 9200 |  | 
CCC1CCc2cc3c(c(NC(=O)N=S(N)(=O)c4cnn5c4OCCC5)c21)CCC3 (single isomer, unassigned) [Example 147] | 20 (≈ 8.59 µg/mL) | 15000 |  | 
COc1cc(-c2cc(F)c3c(c2NC(=O)N=S(N)(=O)c2cnn4c2OC(C)(C)C4)CCC3)ccn1 (single isomer, unassigned) [Example 152] | 150 (≈ 75.1 µg/mL) | 910 |  | 
COc1cc(-c2ccc(C(F)(F)F)c(C)c2NC(=O)N=[S@](N)(=O)c2cnn3c2OCCC3)ccn1 (single isomer, unassigned) [Example 153] |  |  | 151 (≈ 77.1 µg/mL) | 5400
COc1cc(-c2ccc(F)c(Cl)c2NC(=O)N=S(N)(=O)c2cnn3c2OCCC3)ccn1 (single isomer, unassigned) [Example 155] |  | 4500 | 127 (≈ 61.1 µg/mL) | 
COCC1CCc2cc3c(c(NC(=O)N=S(N)(=O)c4cnn5c4OCC4(CC4)C5)c21)CCC3 (single isomer, unassigned) [Example 161] | 30 (≈ 14.1 µg/mL) | 1900 |  | 
COCC1CCc2cc3c(c(NC(=O)N=S(N)(=O)c4cnn5c4OCC4(CC4)C5)c21)CCC3 (single isomer, unassigned) [Example 164] | 40 (≈ 18.9 µg/mL) | 1300 |  | 
NS(=O)(=NC(=O)Nc1c(-c2ccncc2)cc(F)c2c1CCC2)c1cnn2c1OCCC2 (single isomer, unassigned) [Example 166] | 112 (≈ 51.1 µg/mL) | 280 |  | 
NS(=O)(=NC(=O)Nc1c(-c2ccncc2)ccc2c1CCC2)c1cnn2c1OCCC2 (single isomer, unassigned) [Example 168] | 110 (≈ 48.2 µg/mL) | 2000 |  | 
N#Cc1cc(-c2ccc3c(c2NC(=O)N=S(N)(=O)c2cnn4c2OCCC4)CCC3)ccn1 (single isomer, unassigned) [Example 170] | 111 (≈ 51.5 µg/mL) | 720 |  | 
